For 29 compounds, IC50 and GI50 results are on record in US12161642B2, “Ferrochelatase inhibitors and methods of use” (INDIANA UNIVERSITY RESEARCH AND TECHNOLOGY CORPORATION, priority 2018, dated 2024).

SMILES strings stand for the structures.

Test [1] concerns the target recombinant human FECH (Homo sapiens (Human), UniProt P22830). Briefly: FECH enzymatic activity assay (Ni2+ mesoporphyrin IX formation, absorbance at 550 nm). In kind it is biochemical. As to conditions: recombinant FECH; read-out: FECH IC50. Here is the method:
The human FECH expression plasmid pHDTF20 was obtained in E. coli cells from the Dailey Lab (University of Georgia). The cells were grown in Circlegrow medium (MP Biomedicals, LLC #3000-122) with ampicillin for 20 hours. Cells were harvested, lysed in a Tris-MOPS buffer and purified by immobilized metal affinity chromatography using HisPur Cobalt resin (Thermo Fisher #89965).
The activity assay buffer was 100 mM Tris-HCl pH 8.0 with 0.05% octyl glucoside detergent. Assay reagents included 100 μM NiCl (Sigma #339350), 0.75 μM FECH enzyme and 100 μM mesoporphyrin (Sigma #258806) prepared in ammonium hydroxide (Santa Cruz #sc-214535).
The kinetic assay was optimized for a 384-well format. For the 384-well assay, each well contained a 50 μL reaction with 40 μL buffer, 5 μL mesoporphyrin solution, 5 μL NiCl and FECH solution. […] This time point was used for the chemical screen.
A mixture of assay buffer, NiCl and FECH enzyme (15 μL) was added to all wells on the assay plate using a MulitFlo dispenser. To start the reaction, 15 μL of a 333 μM mesoporphyrin solution in assay buffer was added to the plate, the plate spun down and the absorbance at OD=550 nm immediately read to establish a read at time 0. Plates were read for absorbance at OD=550 nm again at t=20 minutes and the activity was expressed as the change in the absorbance over the 20 minute reaction.
Compounds, reordered from ChemDiv or synthesized as described above, were made to 10 mM in DMSO and tested in the FECH enzymatic assay at final concentrations of […] 100 μM (1% final DMSO concentration). IC50 values for the compounds were determined using GraphPad Prism software.
A kinetic assay to monitor FECH enzymatic activity was adapted from a published protocol (Burden et a., Biochim Biophys Acta 1435, 191-197 (1999)).

Test [2] concerns HRECs. As to the kind of experiment: HREC proliferation assay (alamarBlue), GI50 determination. As to conditions: proliferation of HRECs. In kind it is cell-based, human. Here is the method: Human retinal microvascular endothelial cells (HRECs) were cultured in EGM-2 medium (Lonza). Cells (2500/well) in EGM-2 medium were plated in 48 wells in the center of a 96-well black with clear bottom TC treated plate are allowed to attach overnight. The cells were treated with compounds such that final assay concentrations were 100 μM, 30 μM, 10 μM, 3 μM, 1 μM, 100 nM, and 10 nM with DMSO control (1% final DMSO concentration). Cells were allowed to proliferate for 44 hours prior to addition of alamarBlue. The alamarBlue reagent is a flurorometric/colorimetric redox reagent that is reduced in the presence of growing cells. The assay was completed with a read of fluorescence at excitation of 560 nm and emission of 590 nm. GI50 values were determined using GraphPad Prism software.

Broadly, the IC50 is the concentration that gives 50% inhibition. By GI50 is commonly meant the concentration that inhibits growth by half. The low end stands for more potent growth inhibition, the high end for less potent growth inhibition.

Chain of recombinant human FECH (P22830 55-423): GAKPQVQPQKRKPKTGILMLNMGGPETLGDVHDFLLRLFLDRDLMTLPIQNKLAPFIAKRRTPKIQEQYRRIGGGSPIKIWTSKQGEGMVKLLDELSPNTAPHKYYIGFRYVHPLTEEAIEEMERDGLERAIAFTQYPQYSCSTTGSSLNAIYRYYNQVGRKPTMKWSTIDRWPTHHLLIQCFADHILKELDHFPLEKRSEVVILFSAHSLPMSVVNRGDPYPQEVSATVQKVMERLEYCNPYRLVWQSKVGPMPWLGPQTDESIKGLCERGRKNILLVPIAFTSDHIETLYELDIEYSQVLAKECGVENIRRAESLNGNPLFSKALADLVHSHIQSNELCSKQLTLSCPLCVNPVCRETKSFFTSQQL

As to `CC(C)(C)c1ccc(-c2n[nH]c(N)n2)cc1` [Example 1, 3-(4-(tert-butyl)phenyl)-1H-1,2,4-triazol-5-amine], the IC50 in test [1] is above 100 µM. In addition, the GI50 in test [2] (Homo sapiens, HREC, 44 h) was above 100 µM. In the case of `Cc1cc(=O)n2nc(-c3ccc(C(C)(C)C)cc3)nc2[nH]1` [Example 2, 2-(4-(tert-butyl)phenyl)-5-methyl-[1,2,4]triazolo[1,5-a]pyrimidin-7(4H)-one], in test [1], the IC50 was above 100 µM. The GI50 in test [2] (Homo sapiens, HREC, 44 h) was above 100 µM.

As for `CC(C)(C)c1ccc(-c2nc3[nH]c(CCl)cc(=O)n3n2)cc1` [Example 3, 2-(4-(tert-butyl)phenyl)-5-(chloromethyl)-[1,2,4]triazolo[1,5-a]pyrimidin-7(4H)-one], the IC50 in test [1] is above 100 µM. This compound also registered a GI50 in test [2] (Homo sapiens, HREC, 44 h) above 100 µM.

On to `CN(Cc1ccccc1)Cc1cc(=O)n2nc(-c3ccc(C(C)(C)C)cc3)nc2[nH]1` [Example 4a, 5-((benzyl(methyl)amino)methyl)-2-(4-(tert-butyl)phenyl)-[1,2,4]triazolo[1,5-a]pyrimidin-7(4H)-one], for which, in test [1], the IC50 is above 100 µM. Also, the 50% growth inhibitory concentration (GI50) in test [2] (Homo sapiens, HREC, 44 h) was above 100 µM. With `CC(C)(C)c1ccc(-c2nc3[nH]c(CNc4ccnn4-c4ccccc4)cc(=O)n3n2)cc1` [Example 4b, 2-(4-(tert-butyl)phenyl)-5-(((1-phenyl-1H-pyrazol-5-yl)amino)methyl)-[1,2,4]triazolo[1,5-a]pyrimidin-7(4H)-one], the IC50 in test [1] was above 100 µM. The same compound gave a GI50 in test [2] (Homo sapiens, HREC, 44 h) above 100 µM. In the case of `CC(C)(C)c1ccc(-c2nc3[nH]c(CNCCc4ccccc4)cc(=O)n3n2)cc1` [Example 4c, 2-(4-(tert-butyl)phenyl)-5-((phenethylamino)methyl)-[1,2,4]triazolo[1,5-a]pyrimidin-7(4H)-one], in test [1], the IC50 is above 100 µM. In test [2] (Homo sapiens, HREC, 44 h), the GI50 is above 100 µM. With `CC(C)(C)c1ccc(-c2nc3[nH]c(CNc4cnccn4)cc(=O)n3n2)cc1` [Example 4d, 2-(4-(tert-butyl)phenyl)-5-((pyrazin-2-ylamino)methyl)-[1,2,4]triazolo[1,5-a]pyrimidin-7(4H)-one], the IC50 in test [1] was above 100 µM. Also, the GI50 in test [2] (Homo sapiens, HREC, 44 h) is above 100 µM.

Consider `CC(C)(C)c1ccc(-c2nc3[nH]c(CNC4CCCC4)cc(=O)n3n2)cc1` [Example 4f, 2-(4-(tert-butyl)phenyl)-5-((cyclopentylamino)methyl)-[1,2,4]triazolo[1,5-a]pyrimidin-7(4H)-one], for which, in test [1], the IC50 was above 100 µM. Further, in test [2] (Homo sapiens, HREC, 44 h), the concentration for 50% growth inhibition (GI50) was above 100 µM. In the case of `CCN(CC)Cc1cc(=O)n2nc(-c3ccc(C(C)(C)C)cc3)nc2[nH]1` [Example 4g, 2-(4-(tert-butyl)phenyl)-5-((diethylamino)methyl)-[1,2,4]triazolo[1,5-a]pyrimidin-7(4H)-one], the IC50 in test [1] is above 100 µM. The GI50 in test [2] (Homo sapiens, HREC, 44 h) was above 100 µM. For the compound `CCCc1cc(=O)n2nc(CNc3cccc(C)c3)nc2[nH]1` [Example 5b, 5-propyl-2-((m-tolylamino)methyl)-[1,2,4]triazolo[1,5-a]pyrimidin-7(4H)-one], the IC50 in test [1] is 0.508 µM. In addition, the GI50 in test [2] (Homo sapiens, HREC, 44 h) is above 100 µM. The like results for `CCCc1cc(=O)n2nc(CNc3cccc(Cl)c3)nc2[nH]1` [Example 5e, 2-(((3-chlorophenyl)amino)methyl)-5-propyl-[1,2,4]triazolo[1,5-a]pyrimidin-7(4H)-one] were, in that order, 0.346 µM and above 100 µM. For the compound `CCCc1cc(=O)n2nc(CNc3ccc(Cl)cc3)nc2[nH]1` [Example 5f, 2-(((4-chlorophenyl)amino)methyl)-5-propyl-[1,2,4]triazolo[1,5-a]pyrimidin-7(4H)-one], the IC50 in test [1] came out at 0.0916 µM. The GI50 in test [2] (44 hours) is above 100 µM.

For `CCCc1cc(=O)n2nc(CNc3ccccc3-c3ccccc3)nc2[nH]1` [Example 5g, 2-(([1,1′-biphenyl]-2-ylamino)methyl)-5-propyl-[1,2,4]triazolo[1,5-a]pyrimidin-7(4H)-one], the IC50 in test [1] worked out at 27.3 µM. The compound further displayed a GI50 in test [2] (Homo sapiens, HREC, 44 h) above 100 µM.

`CCCc1cc(=O)n2nc(CNc3ccc(F)c(Cl)c3)nc2[nH]1` [Example 5i, 2-(((3-chloro-4-fluorophenyl)amino)methyl)-5-propyl-[1,2,4]triazolo[1,5-a]pyrimidin-7(4H)-one]: the IC50 in test [1] turned out to be 0.0336 µM. In addition, the GI50 in test [2] (Homo sapiens, HREC, 44 h) was above 100 µM. Consider `CCCc1cc(=O)n2nc(CNc3ccc(CC)cc3)nc2[nH]1` [Example 5j, 2-(((4-ethylphenyl)amino)methyl)-5-propyl-[1,2,4]triazolo[1,5-a]pyrimidin-7(4H)-one], for which the concentration for half-maximal inhibition (IC50) in test [1] worked out at 10.6 µM. In test [2] (Homo sapiens, HREC, 44 h), this compound came in with a GI50 above 100 µM. Take `CCCc1cc(=O)n2nc(CNc3ccc(F)c(F)c3)nc2[nH]1` [Example 5k, 2-(((3,4-difluorophenyl)amino)methyl)-5-propyl-[1,2,4]triazolo[1,5-a]pyrimidin-7(4H)-one]: the IC50 in test [1] stood at 0.0429 µM. The same compound returned a GI50 in test [2] (Homo sapiens, HREC, 44 h) above 100 µM. In the same order, the values of `CCCCCOc1ccc(NCc2nc3[nH]c(CCC)cc(=O)n3n2)cc1` [Example 5l, 2-(((4-(pentyloxy)phenyl)amino)methyl)-5-propyl-[1,2,4]triazolo[1,5-a]pyrimidin-7(4H)-one] are 78 µM and above 100 µM. In the same order, the values of `CCCc1cc(=O)n2nc(CNc3ccc(F)cc3)nc2[nH]1` [Example 5m, 2-(((4-fluorophenyl)amino)methyl)-5-propyl-[1,2,4]triazolo[1,5-a]pyrimidin-7(4H)-one] are 0.525 µM and above 100 µM. `CCCc1cc(=O)n2nc(CNc3ccc(OC(F)(F)F)cc3)nc2[nH]1` [Example 5n, 5-propyl-2-(((4-(trifluoromethoxy)phenyl)amino)methyl)-[1,2,4]triazolo[1,5-a]pyrimidin-7(4H)-one]: in test [1], the IC50 turned out to be 34.1 µM. In test [2] (Homo sapiens, HREC, 44 h), this compound had a GI50 above 100 µM.

As for `Cc1ccccc1NCc1nc2[nH]c3c(c(=O)n2n1)CCC3` [Example 5o, 2-((o-tolylamino)methyl)-4,5,6,7-tetrahydro-8H-cyclopenta[d][1,2,4]triazolo[1,5-a]pyrimidin-8-one], the IC50 in test [1] is above 100 µM. For the same compound, in test [2] (Homo sapiens, HREC, 44 h), the GI50 was above 100 µM. As for `Cc1cccc(NCc2nc3[nH]c4c(c(=O)n3n2)CCC4)c1` [Example 5p, 2-((m-tolylamino)methyl)-4,5,6,7-tetrahydro-8H-cyclopenta[d][1,2,4]triazolo[1,5-a]pyrimidin-8-one], in test [1], the IC50 is 9.34 µM. Besides, the GI50 in test [2] (Homo sapiens, HREC, 44 h) is above 100 µM. In the same order, the values of `Cc1ccc(NCc2nc3[nH]c4c(c(=O)n3n2)CCC4)cc1` [Example 5q, 2-((p-tolylamino)methyl)-4,5,6,7-tetrahydro-8H-cyclopenta[d][1,2,4]triazolo[,5-a]pyrimidin-8-one] are 3.62 µM and above 100 µM. Regarding `Cc1ccccc1NCc1nc2[nH]c(C(C)C)cc(=O)n2n1` [Example 5r, 5-isopropyl-2-((o-tolylamino)methyl)-[1,2,4]triazolo[1,5-a]pyrimidin-7(4H)-one], the IC50 in test [1] amounted to 17.9 µM. Moreover, in test [2] (Homo sapiens, HREC, 44 h), the GI50 is above 100 µM.

Consider `Cc1cccc(NCc2nc3[nH]c(C(C)C)cc(=O)n3n2)c1` [Example 5s, 5-isopropyl-2-((m-tolylamino)methyl)-[1,2,4]triazolo[1,5-a]pyrimidin-7(4H)-one], for which, in test [1], the IC50 stood at 28.1 µM. In addition, the GI50 in test [2] (Homo sapiens, HREC, 44 h) is above 100 µM.

As for `Cc1ccc(NCc2nc3[nH]c(C(C)C)cc(=O)n3n2)cc1` [Example 5t, 5-isopropyl-2-((p-tolylamino)methyl)-[1,2,4]triazolo[1,5-a]pyrimidin-7(4H)-one], the IC50 in test [1] was found to be 16.8 µM. In test [2] (Homo sapiens, HREC, 44 h), this compound returned a GI50 above 100 µM.

Regarding `Cc1cc(=O)n2nc(CNc3ccccc3C)nc2[nH]1` [Example 5u, 5-methyl-2-((o-tolylamino)methyl)-[1,2,4]triazolo[1,5-a]pyrimidin-7(4H)-one], in test [1], the IC50 came to 77.2 µM. The compound further yielded a GI50 in test [2] (Homo sapiens, HREC, 44 h) above 100 µM. The like results for `Cc1cccc(NCc2nc3[nH]c(C)cc(=O)n3n2)c1` [Example 5v, 5-methyl-2-((m-tolylamino)methyl)-[1,2,4]triazolo[1,5-a]pyrimidin-7(4H)-one] were, in that order, 18.7 µM and above 100 µM. Turning to `COc1cccc(NCc2cc(=O)n3nc(-c4ccc(C(C)(C)C)cc4)nc3[nH]2)c1` [Example D351-0319], in test [2] (Homo sapiens, HREC, 44 h), the GI50 is above 100 µM. Take `Cc1c(Cl)cccc1NCc1nc2[nH]c(C(C)C)cc(=O)n2n1` [Example D433-1800]: in test [1], the IC50 turned out to be 0.751 µM.
